Results taken from article PMC8597046, “Use of Mixture Dosing and Nonlinear Mixed Effect Modeling of Eight Environmental Contaminants in Rabbits to Improve Extrapolation Value of Toxicokinetic Data” (Environmental Health Perspectives, 2021).

How the values were obtained:
[1] = rodents; ref Kudo and Kawashima 2003; cited from earlier work
[2] = Estimation of loading and daily maintenance doses and NLME model simulations; set-up: species or system female rabbits; details: oral
In short: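 Loading and daily maintenance doses computed from TK equations for a nominal CSS of 1 ng/mL, then scaled to oral doses for female rabbits. NLME model simulated central and peripheral compartment amounts over repeated daily maintenance dosing.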

[3] = TK assay, intravenous mixture dosing: serum concentrations and noncompartmental analysis (sparse data); details: female, rabbit, in vivo, iv; for Vd: IV mixture dosing, NCA, n=12
In short: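 Female New Zealand white rabbits received a compound mixture IV via ear-vein catheter; serum sampled sparsely (3 rabbits/time point) from 15 min to 28 d. Noncompartmental sparse-data analysis on mean profiles: linear-trapezoidal AUC, CL as dose/AUC0−inf, half-life from λZ, MRT and VSS.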

[4] = TK assay, oral mixture dosing: serum concentrations and noncompartmental analysis (sparse data); details: female, rabbit, in vivo, po
In short: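 Female New Zealand white rabbits (10-wk, 2.37±0.14kg) got the compound mixture IV via ear-vein catheter or orally into the mouth; serum sampled 15 min to 28 d, 3 (or 6 at 30 min) rabbits per time. Sparse-data noncompartmental analysis gave AUC (linear trapezoidal), CL or CL_F, half-life and F.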

[5] = New Zealand white (INRA 1777 line)

O=C(O)C(F)(F)C(F)(F)C(F)(F)C(F)(F)C(F)(F)C(F)(F)C(F)(F)F [PFOA, perfluorooctanoic acid]
Intestinal absorption [1]: 93%
Computed maintenance dose ([2]; daily, scaled to the targeted CSS of Table 6): 9.5 µg/kg
Computed loading dose ([2]; scaled to the targeted CSS of Table 6): 10 µg/kg
Daily maintenance dose ([2]; to maintain serum concentration of 1 ng/mL, daily CL×Css/F, DEHP dose for MEHP in serum): 0.18 µg/kg
Loading dose ([2]; to rapidly attain serum concentration of 1 ng/mL, Vss×Css/F, DEHP dose for MEHP in serum): 0.19 µg/kg
AUC(0-inf) [3, 5]: 27.4 µM·h
Cmax [3, 5]: 2330 nM
MRT [3, 5]: 18.7 h
clearance [3, 5]: 0.121 mL/min/kg
half-life [3, 5]: 31.8 h
Vd ([3]; New Zealand white (INRA 1777 line), VSS): 0.135 L/kg
Vd ([3]; New Zealand white (INRA 1777 line), VZ): 0.332 L/kg
concentration at 0.3 h ([3]; New Zealand white, Serum concentration, rabbit 1, 0.30 h): 1870 nM
concentration at 4.38 h ([3]; New Zealand white, Serum concentration, rabbit 1, 4.38 h): 1070 nM
concentration at 24.03 h ([3]; New Zealand white, Serum concentration, rabbit 1, 24.03 h): 240 nM
concentration at 0.28 h ([3]; New Zealand white, Serum concentration, rabbit 2, 0.28 h): 2100 nM
concentration at 4.05 h ([3]; New Zealand white, Serum concentration, rabbit 2, 4.05 h): 1020 nM
concentration at 24 h ([3]; New Zealand white, Serum concentration, rabbit 2, […]): 160 nM
concentration at 0.35 h ([3]; New Zealand white, Serum concentration, rabbit 3, 0.35 h): 2330 nM
concentration at 4.05 h ([3]; New Zealand white, Serum concentration, rabbit 3, 4.05 h): 1450 nM
concentration at 24 h ([3]; New Zealand white, Serum concentration, rabbit 3, […]): 290 nM
concentration at 0.62 h ([3]; New Zealand white, Serum concentration, rabbit 4, 0.62 h): 1700 nM
concentration at 72 h ([3]; New Zealand white, Serum concentration, rabbit 4, 72.00 h): 60 nM
concentration at 0.75 h ([3]; New Zealand white, Serum concentration, rabbit 5, 0.75 h): 1860 nM
concentration at 72.03 h ([3]; New Zealand white, Serum concentration, rabbit 5, 72.03 h): 34 nM
concentration at 0.57 h ([3]; New Zealand white, Serum concentration, rabbit 6, 0.57 h): 1670 nM
concentration at 71.97 h ([3]; New Zealand white, Serum concentration, rabbit 6, 71.97 h): 31 nM
concentration at 11.98 h ([3]; New Zealand white, Serum concentration, rabbit 7, 11.98 h): 840 nM
concentration at 168 h ([3]; New Zealand white, Serum concentration, rabbit 7, 168.00 h): 5.3 nM
concentration at 12.02 h ([3]; New Zealand white, Serum concentration, rabbit 8, 12.02 h): 520 nM
concentration at 167.92 h ([3]; New Zealand white, Serum concentration, rabbit 8, 167.92 h): 4.3 nM
concentration at 11.97 h ([3]; New Zealand white, Serum concentration, rabbit 9, 11.97 h): 590 nM
concentration at 168 h ([3]; New Zealand white, Serum concentration, rabbit 9, 168.00 h): 3 nM
concentration at 671.96 h ([3]; New Zealand white, Serum concentration, rabbit 10, 671.96 h): < 0.24 nM
concentration at 672 h ([3]; New Zealand white, Serum concentration, rabbit 11, 672.00 h): < 0.24 nM
concentration at 671.83 h ([3]; New Zealand white, Serum concentration, rabbit 12, 671.83 h): < 0.24 nM
AUC(0-inf) [4, 5]: 169 µM·h
CL/F [4, 5]: 0.0953 mL/min/kg
Cmax [4, 5]: 9070 nM
MRT [4, 5]: 25.9 h
Tmax [4, 5]: 4.05 h
Vd/F [4, 5]: 0.64 L/kg
bioavailability [4, 5]: > 100%
half-life [4, 5]: 77.6 h
concentration at 4.3 h ([4]; New Zealand white (INRA 1777 line), Serum concentration, oral, rabbit 13, 4.30 h, MEHP after oral DEHP): 6040 nM
concentration at 24 h ([4]; New Zealand white (INRA 1777 line), Serum concentration, oral, rabbit 13, […], MEHP after oral DEHP): 2510 nM
concentration at 0.37 h ([4]; New Zealand white (INRA 1777 line), Serum concentration, oral, rabbit 14, 0.37 h, MEHP after oral DEHP): 4790 nM
concentration at 4.17 h ([4]; New Zealand white (INRA 1777 line), Serum concentration, oral, rabbit 14, 4.17 h, MEHP after oral DEHP): 6700 nM
concentration at 24 h ([4]; New Zealand white (INRA 1777 line), Serum concentration, oral, rabbit 14, […], MEHP after oral DEHP): 1530 nM
concentration at 4.05 h ([4]; New Zealand white (INRA 1777 line), Serum concentration, oral, rabbit 15, 4.05 h, MEHP after oral DEHP): 9070 nM
concentration at 23.98 h ([4]; New Zealand white (INRA 1777 line), Serum concentration, oral, rabbit 15, 23.98 h, MEHP after oral DEHP): 2340 nM
concentration at 12 h ([4]; New Zealand white (INRA 1777 line), Serum concentration, oral, rabbit 21, 12.00 h, MEHP after oral DEHP): 3940 nM
concentration at 168 h ([4]; New Zealand white (INRA 1777 line), Serum concentration, rabbit 21, 168.00 h): 9.3 nM
concentration at 672.02 h ([4]; New Zealand white (INRA 1777 line), Serum concentration, rabbit 22, 672.02 h): 0.5 nM
concentration at 671.96 h ([4]; New Zealand white (INRA 1777 line), Serum concentration, rabbit 23, 671.96 h): 0.26 nM
concentration at 672.02 h ([4]; New Zealand white (INRA 1777 line), Serum concentration, rabbit 24, 672.02 h): 0.49 nM
concentration at 0.55 h ([4]; New Zealand white, Serum concentration, oral, rabbit 16, 0.55 h, MEHP after oral DEHP): 2520 nM
concentration at 72 h ([4]; New Zealand white, Serum concentration, oral, rabbit 16, 72.00 h, MEHP after oral DEHP): 110 nM
concentration at 0.53 h ([4]; New Zealand white, Serum concentration, oral, rabbit 17, 0.53 h, MEHP after oral DEHP): 2350 nM
concentration at 72 h ([4]; New Zealand white, Serum concentration, oral, rabbit 17, 72.00 h, MEHP after oral DEHP): 230 nM
concentration at 0.55 h ([4]; New Zealand white, Serum concentration, oral, rabbit 18, 0.55 h, MEHP after oral DEHP): 4200 nM
concentration at 71.96 h ([4]; New Zealand white, Serum concentration, oral, rabbit 18, 71.96 h, MEHP after oral DEHP): 78 nM
concentration at 12 h ([4]; New Zealand white, Serum concentration, oral, rabbit 19, 12.00 h, MEHP after oral DEHP): 4880 nM
concentration at 12 h ([4]; New Zealand white, Serum concentration, oral, rabbit 20, 12.00 h, MEHP after oral DEHP): 3200 nM
concentration at 168.02 h ([4]; New Zealand white, Serum concentration, rabbit 19, 168.02 h): 32 nM
concentration at 168 h ([4]; New Zealand white, Serum concentration, rabbit 20, 168.00 h): 5 nM
